Measured values published in patent US20240425479A1, “HALO-SUBSTITUTED AMINO AZA-HETEROARYL COMPOUNDS AS INHIBITORS OF THE HAEMATOPOIETIC PROGENITOR KINASE 1 (HPK1)” (priority 2021, published 2024).

molecular target: T1, Recombinant (1-346) HPK1 (h) (Homo sapiens, UniProt Q92918); assay: HPK1 human STE kinase enzymatic radiometric assay; type: biochemical; settings: read-out: HPK1 IC50 nM Range
T1 construct: Recombinant (1-346) HPK1 (h) is incubated with 8 mM MOPS pH 7.0
T1 sequence (Q92918 1-346): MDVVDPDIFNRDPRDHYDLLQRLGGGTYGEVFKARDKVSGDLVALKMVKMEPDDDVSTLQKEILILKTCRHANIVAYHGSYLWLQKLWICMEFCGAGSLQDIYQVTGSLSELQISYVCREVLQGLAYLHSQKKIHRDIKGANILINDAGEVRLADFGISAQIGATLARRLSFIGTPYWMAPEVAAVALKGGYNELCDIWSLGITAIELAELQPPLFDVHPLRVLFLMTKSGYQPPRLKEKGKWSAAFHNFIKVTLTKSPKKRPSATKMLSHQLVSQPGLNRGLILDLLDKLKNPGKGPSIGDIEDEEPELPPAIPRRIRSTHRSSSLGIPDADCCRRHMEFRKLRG
Outline: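 Compounds in 3-fold, 9-point serial dilution; kinase (residues 1-346) phosphorylates myelin basic protein (0.33 mg/mL) using [gamma-33P]-ATP at pH 7.0 (MOPS, EDTA, Mg acetate) for 40 min, room temperature. Acid-quenched mixture filtered onto P30 mats; incorporated radioactivity read by scintillation counting.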

SMILES | IC50
CCN(C)Cc1cc(-c2nc(-c3ccc4c(=O)[nH]cc(F)c4c3)c(N)nc2F)cc(C)c1OC [Example I-298, 6-(3-amino-6-(3-((ethyl(methyl)amino)methyl)-4-methoxy-5-methylphenyl)-5-fluoropyrazin-2-yl)-4-fluoroisoquinolin-1(2H)-one] | 11 to 100 nM
CCN(C)Cc1cc(-c2nc(-c3ccc4c(=O)[nH]cc(C)c4c3)c(N)nc2F)ccc1OC [Example I-301, 6-(3-amino-6-(3-((ethyl(methyl)amino)methyl)-4-methoxyphenyl)-5-fluoropyrazin-2-yl)-4-methylisoquinolin-1(2H)-one] | 11 to 100 nM
CC(C)N1CCN(c2ccc(-c3nc(-c4ccc5c(c4)C4(CC4)NCC5=O)c(N)nc3F)cc2)CC1 [Example I-260, 7′-(3-amino-5-fluoro-6-(4-(4-isopropylpiperazin-1-yl)phenyl)pyrazin-2-yl)-2′,3′-dihydro-4′H-spiro[cyclopropane-1,1′-isoquinolin]-4′-one] | 101 to 1000 nM
Cc1nc2cc(-c3nc(-c4ccc(N5CCN(C(C)C)CC5)cc4)c(F)nc3N)c(F)cc2c(=O)[nH]1 [Example I-63, 7-(3-amino-5-fluoro-6-(4-(4-isopropylpiperazin-1-yl)phenyl)pyrazin-2-yl)-6-fluoro-2-methylquinazolin-4(3H)-one] | 0.1 to 10 nM
Cc1nc2cc(-c3nc(-c4ccc(N5C[C@@H](C)O[C@@H](C)C5)c(CN(C)C)c4)c(F)nc3N)cc(F)c2c(=O)[nH]1 [Example I-196, 7-(3-amino-6-(3-((dimethylamino)methyl)-4-((2R,6S)-2,6-dimethylmorpholino)phenyl)-5-fluoropyrazin-2-yl)-5-fluoro-2-methylquinazolin-4(3H)-one] | 11 to 100 nM
C[C@@H]1CN(c2ccc(-c3nc(-c4ccc5c(c4)CCNC5=O)c(N)nc3F)cc2CN(C)C)C[C@H](C)O1 [Example I-198, 6-(3-amino-6-(3-((dimethylamino)methyl)-4-((2R,6S)-2,6-dimethylmorpholino)phenyl)-5-fluoropyrazin-2-yl)-3,4-dihydroisoquinolin-1(2H)-one] | 0.1 to 10 nM
Cc1cc(-c2nc(-c3cc(F)c4c(c3)CCNC4=O)c(N)nc2F)ccc1C1CCOCC1 [Example I-221, 6-(3-amino-5-fluoro-6-(3-methyl-4-(tetrahydro-2H-pyran-4-yl)phenyl)pyrazin-2-yl)-8-fluoro-3,4-dihydroisoquinolin-1(2H)-one] | 0.1 to 10 nM
Cc1c[nH]c(=O)c2ccc(-c3nc(-c4ccc([C@]56C[C@H]5CN(C)C6)cc4)c(F)nc3N)cc12 [Example I-75, 6-(3-amino-5-fluoro-6-(4-((1S,5R)-3-methyl-3-azabicyclo[3.1.0]hexan-1-yl)phenyl)pyrazin-2-yl)-4-methylisoquinolin-1(2H)-one] | 11 to 100 nM
CN(C)Cc1cccc(-c2nc(-c3ccc4c(=O)[nH]cc(F)c4c3)c(N)nc2F)c1 [Example I-281, 6-(3-amino-6-(3-((dimethylamino)methyl)phenyl)-5-fluoropyrazin-2-yl)-4-fluoroisoquinolin-1(2H)-one] | 11 to 100 nM
Nc1nc(F)c(-c2ccc(N3CCOCC3)c(CN3CCC3)c2F)nc1-c1ccc2c(c1)CCNC2=O [Example I-243, 6-(3-amino-6-(3-(azetidin-1-ylmethyl)-2-fluoro-4-morpholinophenyl)-5-fluoropyrazin-2-yl)-3,4-dihydroisoquinolin-1(2H)-one] | 11 to 100 nM
C[C@@H]1CCCN1Cc1cc(-c2nc(-c3ccc4c(c3)C(F)(F)CNC4=O)c(N)nc2F)ccc1C1CCOCC1 [Example I-232, (R)-6-(3-amino-5-fluoro-6-(3-((2-methylpyrrolidin-1-yl)methyl)-4-(tetrahydro-2H-pyran-4-yl)phenyl)pyrazin-2-yl)-4,4-difluoro-3,4-dihydroisoquinolin-1(2H)-one] | 0.1 to 10 nM
C[C@@H]1CN(C)CCN1c1ccc(-c2nc(-c3cc4c(cc3F)C(=O)NCC4)c(N)nc2F)cc1 [Example I-53, (R)-6-(3-amino-6-(4-(2,4-dimethylpiperazin-1-yl)phenyl)-5-fluoropyrazin-2-yl)-7-fluoro-3,4-dihydroisoquinolin-1(2H)-one] | 0.1 to 10 nM
CCN(C)Cc1cc(-c2nc(-c3ccc4c(=O)[nH]cc(C)c4c3)c(N)nc2F)ccc1C1CCOCC1 [Example I-239, 6-(3-amino-6-(3-((ethyl(methyl)amino)methyl)-4-(tetrahydro-2H-pyran-4-yl)phenyl)-5-fluoropyrazin-2-yl)-4-methylisoquinolin-1(2H)-one] | 0.1 to 10 nM
COCCN(C)Cc1cc(-c2nc(-c3cc4c(cc3F)C(=O)NCC4)c(N)nc2F)ccc1N1CCOCC1 [Example I-161, 6-(3-amino-5-fluoro-6-(3-(((2-methoxyethyl)(methyl)amino)methyl)-4-morpholinophenyl)pyrazin-2-yl)-7-fluoro-3,4-dihydroisoquinolin-1(2H)-one] | 0.1 to 10 nM
Cc1c[nH]c(=O)c2ccc(-c3nc(-c4ccc(N5CCN(CCCC(F)F)CC5)cc4)c(F)nc3N)cc12 [Example I-73, 6-(3-amino-6-(4-(4-(4,4-difluorobutyl)piperazin-1-yl)phenyl)-5-fluoropyrazin-2-yl)-4-methylisoquinolin-1(2H)-one] | 0.1 to 10 nM
CN(C)Cc1cc(-c2nc(-c3cc4c(cc3F)C(=O)NCC4)c(N)nc2F)ccc1N1CCSCC1 [Example I-129, 6-(3-amino-6-(3-((dimethylamino)methyl)-4-thiomorpholinophenyl)-5-fluoropyrazin-2-yl)-7-fluoro-3,4-dihydroisoquinolin-1(2H)-one] | 0.1 to 10 nM
Cc1c[nH]c(=O)c2ccc(-c3nc(-c4ccc5c(c4)[C@H](N(C)C)CCO5)c(F)nc3N)cc12 [Example I-285, (R)-6-(3-amino-6-(4-(dimethylamino)chroman-6-yl)-5-fluoropyrazin-2-yl)-4-methylisoquinolin-1(2H)-one] | 0.1 to 10 nM
Nc1nc(F)c(-c2ccc(C3CCOCC3)c([C@@H]3CCCN3)c2)nc1-c1cc2c(cc1F)C(=O)NCC2 [Example I-19, (S)-6-(3-amino-5-fluoro-6-(3-(pyrrolidin-2-yl)-4-(tetrahydro-2H-pyran-4-yl)phenyl)pyrazin-2-yl)-7-fluoro-3,4-dihydroisoquinolin-1(2H)-one] | 0.1 to 10 nM
Cc1[nH]c(=O)c2c(F)cc(-c3nc(-c4ccc(N5CCN(C(C)C)CC5)cc4)c(F)nc3N)cc2c1Cl [Example I-102, 6-(3-amino-5-fluoro-6-(4-(4-isopropylpiperazin-1-yl)phenyl)pyrazin-2-yl)-4-chloro-8-fluoro-3-methylisoquinolin-1(2H)-one] | 0.1 to 10 nM
Nc1nc(F)c(-c2ccc([C@]34C[C@H]3CN(C3CCC3)C4)cc2)nc1-c1ccc2c(=O)[nH]cc(F)c2c1 [Example I-99, 6-(3-amino-6-(4-((1S,5R)-3-cyclobutyl-3-azabicyclo[3.1.0]hexan-1-yl)phenyl)-5-fluoropyrazin-2-yl)-4-fluoroisoquinolin-1(2H)-one] | 0.1 to 10 nM
COC1CN(Cc2cc(-c3nc(-c4cc(F)c5c(c4)CCNC5=O)c(N)nc3F)ccc2C2CCOCC2)C1 [Example I-191, 6-(3-amino-5-fluoro-6-(3-((3-methoxyazetidin-1-yl)methyl)-4-(tetrahydro-2H-pyran-4-yl)phenyl)pyrazin-2-yl)-8-fluoro-3,4-dihydroisoquinolin-1(2H)-one] | 0.1 to 10 nM
CN(C)[C@@H]1COc2ccc(-c3nc(-c4ccc5c(=O)[nH]cc(Cl)c5c4)c(N)nc3F)cc21 [Example I-252, (S)-6-(3-amino-6-(3-(dimethylamino)-2,3-dihydrobenzofuran-5-yl)-5-fluoropyrazin-2-yl)-4-chloroisoquinolin-1(2H)-one] | 0.1 to 10 nM
COc1ccc(-c2nc(-c3ccc4c(c3)CCNC4=O)c(N)nc2F)cc1C#N [Example I-292, 5-(5-amino-3-fluoro-6-(1-oxo-1,2,3,4-tetrahydroisoquinolin-6-yl)pyrazin-2-yl)-2-methoxybenzonitrile] | 11 to 100 nM
Cc1c[nH]c(=O)c2cc(F)c(-c3nc(-c4ccc(C5CCOCC5)c(CN(C)C)c4)c(F)nc3N)cc12 [Example I-235, 6-(3-amino-6-(3-((dimethylamino)methyl)-4-(tetrahydro-2H-pyran-4-yl)phenyl)-5-fluoropyrazin-2-yl)-7-fluoro-4-methylisoquinolin-1(2H)-one] | 0.1 to 10 nM
Cc1[nH]c(=O)c2c(F)cc(-c3nc(-c4ccc(N5CCOCC5)c(CN(C)C)c4)c(F)nc3N)cc2c1F [Example I-116, 6-(3-amino-6-(3-((dimethylamino)methyl)-4-morpholinophenyl)-5-fluoropyrazin-2-yl)-4,8-difluoro-3-methylisoquinolin-1(2H)-one] | 0.1 to 10 nM
CO[C@@H]1CCN(Cc2cc(-c3nc(-c4cc5c(cc4F)C(=O)NCC5)c(N)nc3F)ccc2N2CCOCC2)C1 [Example I-152, (R)-6-(3-amino-5-fluoro-6-(3-((3-methoxypyrrolidin-1-yl)methyl)-4-morpholinophenyl)pyrazin-2-yl)-7-fluoro-3,4-dihydroisoquinolin-1(2H)-one] | 0.1 to 10 nM
Cc1c[nH]c(=O)c2ccc(-c3nc(-c4ccc(N5CCN(CCC(F)F)CC5)cc4)c(F)nc3N)cc12 [Example I-87, 6-(3-amino-6-(4-(4-(3,3-difluoropropyl)piperazin-1-yl)phenyl)-5-fluoropyrazin-2-yl)-4-methylisoquinolin-1(2H)-one] | > 1000 nM
